# Test results published in publication PMC10630452, “The tumor-enriched small molecule gambogic amide suppresses glioma by targeting WDR1-dependent cytoskeleton remodeling” (Signal Transduction and Targeted Therapy, 2023).
# Key:
# [1] = biological target: T1, WDR1 (Homo sapiens, UniProt O75083); experiment: Drug affinity responsive target stability (DARTS) in T2-4 cells; type: binding; conditions: T2-4 lysate, 1 h incubation, pronase 30 min
# T1 construct: GA-amide protected WDR1 at different temperature gradients in the CETSA in T2-4 cells; endogenous in cells; host or cells: T2-4 patient-derived glioma cells
# Experimental: The drug affinity responsive target stability (DARTS) method was performed following a previously described procedure.[32] In brief, cells were collected and lysed with M-PER lysis buffer (catalog 78501, Thermo Fisher Scientific) containing complete protease inhibitor (catalog 04693124001, Roche) and phosphatase inhibitors (catalog 04906845001, Roche). Then, the lysis buffer was supplemented with TNC buffer. The lysates were aliquoted into 1.5 mL tubes and incubated with DMSO or different concentrations of GA-amide for 1 h at room temperature. After incubation, the lysates were digested with 1 μg of pronase for every 300 μg of lysate for exactly 30 min. Then, protein loading buffer was added immediately, and the lysates were heated to stop proteolysis. Western blot analysis was performed for further analysis.
# [2] = biological target: T2, TrkA (Homo sapiens, UniProt P04629); experiment: Western blot of TrkA phosphorylation in GSCs; type: cell-based; conditions: GSC2 and U87MG-SLC cells, 4 hours
# T2 construct: endogenous in cells; host or cells: GSC2 and U87MG-SLC glioma stem cells
# Experimental: Proteins in the samples were separated on SDS–polyacrylamide gels and transferred to nitrocellulose membranes (Amersham, Sweden). After blocking with 5% skim milk, the membranes were incubated with the indicated primary antibodies listed in Supplementary Table 3 overnight. After washing with 1 × TBST three times, the membranes were incubated with secondary antibodies, and protein bands were detected by using ECL reagent.
# Supplementary Fig. 5 TrkA was not the functional target for GA-amide to inhibit glioma. a Western blot analyses of the TrkA and p-TrkA expression in GSC2 and U87MG-SLC cells with GA-amide treatment for 4 hours. b Western blot analyses of the p-TrkA expression in GSC2 with GA-amide treatment for different times. c, d The combination effects of GA-amide with GW441756, a TrkA inhibitor, or with K252a, an inhibitor of Trk family in GSC2 (c) and U87MG-SLC (d) (48 hours, n = 3).
# [3] = tested on: GSC2 intracranial xenograft; experiment: GSC2-derived intracranial xenograft model; type: in vivo, nude mice; conditions: 1 mg/kg i.v. daily for 13 days
# Experimental: Fig. 3 The inhibitory effects of GA-amide in glioma stem cell-derived mouse models and transgenic mouse models. a, b GSC2 cells were implanted s.c. into nude mice. Mice were treated with control (DMSO) (n = 7) or GA-amide (2 mg/kg) (n = 8) via i.p. injection once daily for 11 days, after which a photograph (a) was taken to show the tumor volume, and the tumor volume was calculated by a modified ellipsoid formula in (b). c, d GSC2 cells were implanted intracranially into nude mice. Mice were injected i.v. with control (n = 8) or 1 mg/kg GA-amide (n = 8) daily for 13 days, the Mantel‒Cox log–rank test was used for analysis, and the relative survival curves are shown in (c). The body weights are shown in (d). e In vivo efficacy studies of GA-amide using transgenic mouse models. Glioma was induced in transgenic C57BL/6 mice by injection of pTomo-Ras-sip53 lentivirus, and the strategy is shown. f, g MRI analysis was used to group mice into the control (n = 7) and GA-amide-treated groups (n = 8) before treatment. […]
# For the intracranial xenograft mouse models, 1 × 10^5 GSC2 or U87MG-SLC cells were injected into the frontal cortex (1 mm rostral to the bregma, 2 mm lateral to the midline, and 3 mm deep) using a microsyringe (Hamilton). […] The tumor size was measured by MRI, and survival analysis was performed in a blinded manner.
# [4] = Acute toxicity assay, blood routine examination; type: in vivo, mice; conditions: for #Retic (Reticulocyte) / CH (corpuscular hemoglobin) / CHCM (Cellular Hemoglobin Concentration Mean) / CHDW (Cell hemoglobin distribution width) / HCT (Hematocrit) / HDW (Hemoglobin Distribution Width) / HGB (Hemoglobin) / MCH (Mean Corpuscular Hemoglobin) / MCHC (Mean corpuscular hemoglobin concentration) / MCV (Mean Corpuscular Volume) / MPV (Mean platelet volume) / PCT (Plateletocrit) / PDW (Platelet distribution width) / PLT (Platelet) / RBC (Red Blood Cell) / RDW (red blood cell volume distribution width) / WBC (White Blood Cell): mice
# [5] = tested on: PDCs and GSCs; experiment: Transwell cell invasion assay; type: cell-based; conditions: 0.1 μM and 0.3 μM, 48–72 h
# Experimental: First, cells were starved for 12 h. The top surface of the membrane in the upper transwell chamber was coated with Matrigel (dilution ratio, 1:100, Corning, USA) by incubation for 30 min. Cells were plated in the upper chamber with serum-free neurobasal medium containing the corresponding concentration of GA-amide, and 600 μL of neurobasal medium containing 10% FBS and the same concentration of GA-amide was added to the lower chamber for 24–72 h of culture. Next, the cells in the transwell chamber were fixed with 4% paraformaldehyde for 20 min. After noninvaded cells in the upper chamber were removed by wiping, the remaining cells were stained with 1% crystal violet staining solution for 20 min and washed with double-distilled water. Finally, cell invasion was evaluated by microscopy.
# T2 sequence (P04629 33-796): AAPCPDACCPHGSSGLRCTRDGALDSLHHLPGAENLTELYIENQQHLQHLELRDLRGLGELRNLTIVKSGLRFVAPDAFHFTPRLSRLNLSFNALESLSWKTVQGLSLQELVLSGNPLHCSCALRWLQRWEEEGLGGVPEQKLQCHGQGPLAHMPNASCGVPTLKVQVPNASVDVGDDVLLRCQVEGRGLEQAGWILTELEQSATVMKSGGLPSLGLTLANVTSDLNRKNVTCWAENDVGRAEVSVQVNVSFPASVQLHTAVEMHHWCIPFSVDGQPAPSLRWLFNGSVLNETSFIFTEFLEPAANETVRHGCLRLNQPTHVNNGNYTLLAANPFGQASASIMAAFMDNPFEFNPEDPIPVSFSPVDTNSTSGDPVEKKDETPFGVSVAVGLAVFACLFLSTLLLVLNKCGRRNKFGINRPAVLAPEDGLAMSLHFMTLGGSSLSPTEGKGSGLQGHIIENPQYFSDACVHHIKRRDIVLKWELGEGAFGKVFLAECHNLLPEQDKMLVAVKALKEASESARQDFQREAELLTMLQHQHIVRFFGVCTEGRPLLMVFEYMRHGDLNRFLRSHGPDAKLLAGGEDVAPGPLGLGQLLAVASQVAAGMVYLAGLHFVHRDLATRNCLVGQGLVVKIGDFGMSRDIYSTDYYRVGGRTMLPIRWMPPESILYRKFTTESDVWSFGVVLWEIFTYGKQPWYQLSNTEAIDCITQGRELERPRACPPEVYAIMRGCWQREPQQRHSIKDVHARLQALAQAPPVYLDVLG
# T1 sequence (O75083 whole entry): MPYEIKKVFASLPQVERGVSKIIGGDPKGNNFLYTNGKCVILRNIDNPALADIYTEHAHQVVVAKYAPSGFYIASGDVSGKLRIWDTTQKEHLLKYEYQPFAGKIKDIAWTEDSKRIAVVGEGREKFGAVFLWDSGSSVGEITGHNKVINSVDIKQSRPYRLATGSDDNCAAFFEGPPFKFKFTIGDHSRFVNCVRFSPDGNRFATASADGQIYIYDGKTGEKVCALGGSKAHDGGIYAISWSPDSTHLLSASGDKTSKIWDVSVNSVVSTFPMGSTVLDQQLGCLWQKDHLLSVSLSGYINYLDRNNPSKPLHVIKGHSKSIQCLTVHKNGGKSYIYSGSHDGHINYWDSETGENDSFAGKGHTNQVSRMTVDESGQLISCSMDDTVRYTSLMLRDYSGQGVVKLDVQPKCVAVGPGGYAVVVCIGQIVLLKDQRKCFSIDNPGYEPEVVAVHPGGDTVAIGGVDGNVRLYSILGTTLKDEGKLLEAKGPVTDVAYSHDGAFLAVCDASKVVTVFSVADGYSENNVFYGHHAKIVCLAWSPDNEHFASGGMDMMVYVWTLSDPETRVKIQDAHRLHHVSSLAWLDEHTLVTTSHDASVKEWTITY
structure (smiles),measurement,setting,value
"CC(C)=CCC[C@]1(C)C=Cc2c(O)c3c(c(CC=C(C)C)c2O1)O[C@]12C(=C[C@@H]4CC1C(C)(C)O[C@@]2(C/C=C(/C)C(N)=O)C4=O)C3=O [GA-amide, gambogic amide]",WDR1 stabilization against pronase digestion,[1],significantly promoted WDR1 stabilization during pronase-induced degradation
same,TrkA phosphorylation,[2],TrkA was phosphorylated at Y751 and Y490 in GSCs
same,mouse body weight versus control,[3],no significant difference in mouse body weight
same,survival,[3],prolonged survival times
same,routine blood parameters and serum biochemical analytes versus control,"[4]; 1 mg/kg and 10 mg/kg, one-time i.v., ALT and Cl fluctuated",no significant differences in routine blood parameters and most analytes evaluated in biochemical analysis of mouse serum
same,#Retic (Reticulocyte),[4]; 1mg/kg one-time i.v.,335.1±72.9 ×109cells/L
same,CH (corpuscular hemoglobin),[4]; 1mg/kg one-time i.v.,16.8 ± 0.5 pg
same,CHCM (Cellular Hemoglobin Concentration Mean),[4]; 1mg/kg one-time i.v.,35.7 ± 0.8 g/dL
same,CHDW (Cell hemoglobin distribution width),[4]; 1mg/kg one-time i.v.,3.00±0.39%
same,HCT (Hematocrit),[4]; 1mg/kg one-time i.v.,42.8±7.5%
same,HDW (Hemoglobin Distribution Width),[4]; 1mg/kg one-time i.v.,2.66 ± 0.20 g/dL
same,HGB (Hemoglobin),[4]; 1mg/kg one-time i.v.,13.0 ± 0.7 g/dL
same,MCH (Mean Corpuscular Hemoglobin),[4]; 1mg/kg one-time i.v.,14.5 ± 1.7 pg
same,MCHC (Mean corpuscular hemoglobin concentration),[4]; 1mg/kg one-time i.v.,31.0 ± 3.9 g/dL
same,MCV (Mean Corpuscular Volume),[4]; 1mg/kg one-time i.v.,47.0 ± 1.8 fL
same,MPV (Mean platelet volume),[4]; 1mg/kg one-time i.v.,8.3 ± 0.3 fL
same,PCT (Plateletocrit),[4]; 1mg/kg one-time i.v.,1.33±0.30%
same,PDW (Platelet distribution width),[4]; 1mg/kg one-time i.v.,48.8±2.5%
same,PLT (Platelet),[4]; 1mg/kg one-time i.v.,1603±310 ×103cells/μL
same,RBC (Red Blood Cell),[4]; 1mg/kg one-time i.v.,9.09±1.40 ×106cells/μL
same,RDW (red blood cell volume distribution width),[4]; 1mg/kg one-time i.v.,16.5±1.2%
same,WBC (White Blood Cell),[4]; 1mg/kg one-time i.v.,4.78±1.34 ×103cells/μL
same,#Retic (Reticulocyte),[4]; 10mg/kg one-time i.v.,836.7±674.4 ×109cells/L
same,CH (corpuscular hemoglobin),[4]; 10mg/kg one-time i.v.,17.0 ± 0.5 pg
same,CHCM (Cellular Hemoglobin Concentration Mean),[4]; 10mg/kg one-time i.v.,35.4 ± 1.3 g/dL
same,CHDW (Cell hemoglobin distribution width),[4]; 10mg/kg one-time i.v.,3.15±0.11%
same,HCT (Hematocrit),[4]; 10mg/kg one-time i.v.,48.5±5.1%
same,HDW (Hemoglobin Distribution Width),[4]; 10mg/kg one-time i.v.,2.71 ± 0.10 g/dL
same,HGB (Hemoglobin),[4]; 10mg/kg one-time i.v.,13.6 ± 0.5 g/dL
same,MCH (Mean Corpuscular Hemoglobin),[4]; 10mg/kg one-time i.v.,13.6 ± 1.8 pg
same,MCHC (Mean corpuscular hemoglobin concentration),[4]; 10mg/kg one-time i.v.,28.4 ± 3.8 g/dL
same,MCV (Mean Corpuscular Volume),[4]; 10mg/kg one-time i.v.,47.8 ± 1.1 fL
same,MPV (Mean platelet volume),[4]; 10mg/kg one-time i.v.,8.4 ± 0.2 fL
same,PCT (Plateletocrit),[4]; 10mg/kg one-time i.v.,1.63±0.60%
same,PDW (Platelet distribution width),[4]; 10mg/kg one-time i.v.,49.9±2.3%
same,PLT (Platelet),[4]; 10mg/kg one-time i.v.,1936±670 ×103cells/μL
same,RBC (Red Blood Cell),[4]; 10mg/kg one-time i.v.,10.13±1.05 ×106cells/μL
same,RDW (red blood cell volume distribution width),[4]; 10mg/kg one-time i.v.,17.0±0.6%
same,WBC (White Blood Cell),[4]; 10mg/kg one-time i.v.,4.38±0.95 ×103cells/μL
same,number of invading cells (transwell),[5],significant decrease in the number of invading PDCs and GSCs
